Where two headings read alike, the source gives them in different places.
Tests used:
OCT1 = biological target: T1, OCT1 (Homo sapiens, UniProt O15245); assay: Trans-stimulation assay of TEA uptake in OCT1-transfected HEK293 cells; type: cell-based; conditions: pre-loading 60 min with 100 μM pyrethroid or 2 mM unlabeled TEA; HEK-OCT1 cells
T1 sequence (O15245 1-554): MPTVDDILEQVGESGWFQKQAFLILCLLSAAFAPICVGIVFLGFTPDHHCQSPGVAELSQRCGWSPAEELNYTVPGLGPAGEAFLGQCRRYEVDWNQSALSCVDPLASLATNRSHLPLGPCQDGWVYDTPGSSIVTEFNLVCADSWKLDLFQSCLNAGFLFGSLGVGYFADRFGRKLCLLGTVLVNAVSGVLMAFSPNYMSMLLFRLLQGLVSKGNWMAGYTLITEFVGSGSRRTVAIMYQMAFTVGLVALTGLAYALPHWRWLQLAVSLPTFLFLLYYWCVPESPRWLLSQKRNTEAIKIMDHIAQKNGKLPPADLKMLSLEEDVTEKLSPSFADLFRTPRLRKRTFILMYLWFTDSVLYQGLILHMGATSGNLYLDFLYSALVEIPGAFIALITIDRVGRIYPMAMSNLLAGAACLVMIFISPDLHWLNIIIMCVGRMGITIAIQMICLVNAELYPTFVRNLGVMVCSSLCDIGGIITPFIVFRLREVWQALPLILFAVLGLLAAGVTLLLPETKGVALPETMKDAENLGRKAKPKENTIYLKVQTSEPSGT
Procedure: Trans-stimulation assays were performed as previously described. Briefly, OCT1-transfected HEK293 cells were first preloaded with 2 mM unlabeled TEA or 100 μM pyrethroid for 60 min at 37°c in the transport assay medium described above. After washing twice with PBS, cells were next re-incubated in transport assay medium containing 29 μM [1-^14C]-TEA for 5 min at 37°C. After washing twice with PBS, cells were lysed in distilled water and intracellular accumulation of [1-^14C]-TEA was then determined by scintillation counting.
Intracellular accumulation of TEA was then determined by scintillation counting. […] After washing, cells were next re-incubated with 29 μM [1-^14C]-TEA for 5 min at 37°C. Intracellular accumulation of [1-^14C]-TEA was then determined by scintillation counting.

P-gp = P-gp (Homo sapiens, UniProt P08183); assay: P-gp activity: rhodamine 123 accumulation in MCF7R cells; conditions: for inhibition at 100 μM: human, pH 7.4
Sequence of P-gp (P08183 whole entry): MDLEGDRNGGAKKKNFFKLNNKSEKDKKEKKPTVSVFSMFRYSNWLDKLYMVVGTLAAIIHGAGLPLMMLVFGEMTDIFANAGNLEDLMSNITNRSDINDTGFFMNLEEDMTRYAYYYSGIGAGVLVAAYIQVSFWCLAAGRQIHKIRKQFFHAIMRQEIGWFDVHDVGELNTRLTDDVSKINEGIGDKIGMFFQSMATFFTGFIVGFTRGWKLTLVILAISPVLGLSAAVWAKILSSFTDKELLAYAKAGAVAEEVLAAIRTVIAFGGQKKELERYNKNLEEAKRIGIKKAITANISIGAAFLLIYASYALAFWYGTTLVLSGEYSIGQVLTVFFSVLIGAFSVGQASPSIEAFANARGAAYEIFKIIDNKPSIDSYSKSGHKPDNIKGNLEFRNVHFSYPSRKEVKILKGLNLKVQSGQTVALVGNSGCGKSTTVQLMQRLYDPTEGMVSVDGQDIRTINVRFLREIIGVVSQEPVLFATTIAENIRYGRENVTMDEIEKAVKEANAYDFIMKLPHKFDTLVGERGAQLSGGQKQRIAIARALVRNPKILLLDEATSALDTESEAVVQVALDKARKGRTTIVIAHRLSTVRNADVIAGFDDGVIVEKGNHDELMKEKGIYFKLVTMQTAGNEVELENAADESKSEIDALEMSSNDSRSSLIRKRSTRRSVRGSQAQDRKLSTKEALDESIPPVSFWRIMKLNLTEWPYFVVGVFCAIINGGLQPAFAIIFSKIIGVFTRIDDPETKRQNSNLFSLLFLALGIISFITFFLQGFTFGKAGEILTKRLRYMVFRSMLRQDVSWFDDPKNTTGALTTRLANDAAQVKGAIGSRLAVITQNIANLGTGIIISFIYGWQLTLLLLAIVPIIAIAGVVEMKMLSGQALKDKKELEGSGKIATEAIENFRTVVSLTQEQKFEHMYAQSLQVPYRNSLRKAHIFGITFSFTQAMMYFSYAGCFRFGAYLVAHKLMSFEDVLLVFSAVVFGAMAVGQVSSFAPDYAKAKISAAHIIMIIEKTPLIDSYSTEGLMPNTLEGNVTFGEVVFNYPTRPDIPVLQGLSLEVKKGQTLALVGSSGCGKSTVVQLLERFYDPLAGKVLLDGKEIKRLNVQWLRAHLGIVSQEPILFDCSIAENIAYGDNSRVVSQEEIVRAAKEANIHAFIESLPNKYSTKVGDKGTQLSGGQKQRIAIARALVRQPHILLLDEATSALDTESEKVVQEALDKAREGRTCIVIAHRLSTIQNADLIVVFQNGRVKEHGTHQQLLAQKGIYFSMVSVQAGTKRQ
Procedure: The effects of pyrethroids on activity of ABC and SLC transporters were determined through measuring cellular accumulation or retention of fluorescent or radiolabeled reference substrates for transporters, in the presence or absence of reference inhibitors, as previously described. The nature of cells and reference substrates and inhibitors used for transport assays are summarized in S3 Table.
For accumulation assays (performed for all transporters, excepted BCRP), transporter-expressing cells usually cultured in 48-well plates were first incubated at 37°C with reference substrates in the absence (control) or presence of pyrethroids or reference inhibitors, in a well-defined transport assay medium, consisting of 136 mM NaCl, 5.3 mM KCl, 1.1mM KH2PO4, 0.8 mM MgSO4, 1.8 mM CaCl2, 10 mM HEPES, 11 mM D-glucose and adjusted to pH = 7.4 (excepted for MATE transporter assays, for which pH was set to 8.4). The nature of substrates and reference inhibitors and the incubation times with substrates, that varied according to the transporter, were selected in agreement with previous studies and are indicated in S3 Table. The total incubation volume with substrates was 200 μL/well. After washing twice in phosphate-buffered saline (PBS) (200 μL/well/washing), cells were lysed in distilled water (155 μL/well). An aliquot of cell lysate (5 μL) was then taken for determining cellular protein content by the Bradford method. The rest of lysate (150 μL/well) was used for measuring intracellular accumulation of reference substrates by scintillation counting or spectrofluorimetry using a SpectraMax Gemini SX spectrofluorometer (Molecular Devices, Sunnyvale, CA, USA) (excitation and emission wavelengths were 485 and 535 nm, respectively, for rhodamine 123 and fluorescein, and 355 and 460 nm, respectively, for DAPI).
Intracellular concentrations of reference substrates were initially expressed as fluorescence arbitrary units (for fluorescent dye substrates) or as moles (for radiolabeled substrates) and normalized to cellular protein content, determined by the Bradford method. They were finally used for calculating percentage of transporter activity, according to the following equations [41, 45]: %ABCtransporter activity=([Substrateref inh]-[Substratepyrethroid])×100/([Substrateref inh]-[Substratecontrol]) (1) %SLC transporter activity=([Substratepyrethroid]-[Substratref inh])×100/([Substratecontrol]-[Substrateref inh]) (2) with [Substratepyrethroid] = cellular concentration of reference substrate in the presence of pyrethroid, [Substrateref inh] = cellular concentration of reference substrate in the presence of reference inhibitor and [Substratecontrol] = cellular concentration of reference substrate in control cells not exposed to pyrethroid or reference inhibitor.
The initial tested concentration of pyrethroids was 100 μM. […] Such concentrations were calculated using GraphPad Prism software (GraphPad Software, La Jolla, CA), through nonlinear regression based on the four parameter logistic function using the following equations: […]

MATE1 = biological target: T2, MATE1 (Homo sapiens, UniProt Q96FL8); assay: MATE1 activity: TEA accumulation in HEK-MATE1 cells; type: cell-based; conditions: for inhibition at 100 μM: human, pH 8.4
T2 construct: host or cells: HEK293
T2 sequence (Q96FL8 1-570): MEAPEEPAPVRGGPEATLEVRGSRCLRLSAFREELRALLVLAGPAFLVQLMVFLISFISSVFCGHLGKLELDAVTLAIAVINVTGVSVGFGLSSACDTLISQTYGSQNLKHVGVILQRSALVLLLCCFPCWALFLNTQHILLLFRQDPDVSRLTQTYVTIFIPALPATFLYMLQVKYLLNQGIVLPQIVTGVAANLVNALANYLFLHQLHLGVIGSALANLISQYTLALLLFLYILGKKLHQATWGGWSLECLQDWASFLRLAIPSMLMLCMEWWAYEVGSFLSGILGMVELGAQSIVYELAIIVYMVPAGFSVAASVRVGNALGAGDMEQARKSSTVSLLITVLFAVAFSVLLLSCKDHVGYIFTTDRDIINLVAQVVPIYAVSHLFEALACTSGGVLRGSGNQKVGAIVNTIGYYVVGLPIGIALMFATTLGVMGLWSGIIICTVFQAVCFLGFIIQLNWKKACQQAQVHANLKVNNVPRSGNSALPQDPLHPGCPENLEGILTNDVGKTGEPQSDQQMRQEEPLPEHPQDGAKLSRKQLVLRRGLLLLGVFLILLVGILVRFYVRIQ
Procedure: The initial tested concentration of pyrethroids was 100 μM.

C=CCC1=C(C)C(OC(=O)C2C(C=C(C)C)C2(C)C)CC1=O (centres unmarked) [allethrin]
effect of pre-loading on radiolabeled TEA uptake (trans-stimulation assay) (OCT1): trans-inhibition
IC50 (P-gp): > 100 µM
inhibition at 100 μM (P-gp): 32.7%
IC50 (MATE1): 50.2 µM
inhibition at 100 μM (MATE1): > 79%

CC(C)=CC1C(C(=O)OCN2C(=O)C3=C(CCCC3)C2=O)C1(C)C (centres unmarked) [tetramethrin]
effect of pre-loading on radiolabeled TEA uptake (trans-stimulation assay) (OCT1): trans-inhibition
IC50 (P-gp): > 100 µM
inhibition at 100 μM (P-gp): 24.5%
effect on P-gp activity (P-gp; pyrethroid 100 μM): moderately inhibited
IC50 (MATE1): 47.5 µM
inhibition at 100 μM (MATE1; pyrethroid 100 μM, HEK-MATE1 cells, TEA, read-out: inhibition of MATE1 activity): > 79%

Source: PMC5242521 (PLoS ONE, 2017)
